Read-outs that look alike come from different tables or passages of the source. Where no end group is shown, it is not given here.
What was measured:
E.coli = details: cited from earlier work
S.aureus = details: cited from earlier work
Fungus = details: cited from earlier work
Bacilius subtilis = details: cited from earlier work
R. solani Khun = details: against R. solani Khun; ref [34]; cited from earlier work
P.aeruginosa = details: cited from earlier work
[1] = system: gram-negative bacteria, mostly E.coli and P. aeruginosa; details: range stated jointly; ref Table 5.0 ([28], [30]–[32]); cited from earlier work
sheep erythrocytes = experiment: Hemolysis assay; assay type: cell-based; details: sheep erythrocytes in PBS, 37°C 18–24 hours, absorbance 567 nm

**Q.** Which “MIC values E.coli” value (E.coli; ref [39]) does the source give for Oh-defensin here?
**A.** 1.3 µg/mL

**Q.** And the “MIC values S.aureus” value (S.aureus; ref [39])?
**A.** 1.25 µg/mL

**Q.** What about the “MIC values Fungus” value (Fungus; ref [39]) of the same compound?
**A.** 1.3 µg/mL

**Q.** With Bactrocerin-1 as the compound, how does the “MIC values E.coli” value (E.coli; ref [37]) read?
**A.** >232.5 µg/mL

**Q.** What about the “MIC values S.aureus” value (S.aureus; ref [37]) of the same compound?
**A.** 6.5 µg/mL

**Q.** What about the “MIC values Bacilius subtilis” value (Bacilius subtilis; ref [37]) of the same compound?
**A.** 13.0 µg/mL

**Q.** And the “MIC values Fungus” value (Fungus; ref [37])?
**A.** 26.0 to 104.7 µg/mL

**Q.** What does the source list for Trx-stomoxynZH1?
**A.** MIC values E.coli (E.coli; ref [34]): 15 to 30 µg/mL; MIC values S.aureus (S.aureus; ref [34]): 27 to 54 µg/mL; MIC values Fungus (R. solani Khun): > 98 against R. solani Khun μg/ml

**Q.** With Cecropin P1 as the compound, how does the “MIC values E.coli” value (E.coli; ref [32]) read?
**A.** 0.12 to 4 µg/mL

**Q.** What about the “MIC values P.aeruginosa” value (P.aeruginosa; ref [32]) of the same compound?
**A.** 4 to 64 µg/mL

**Q.** What about the “MIC range against different strains of gram-negative bacteria” value [1] of the same compound?
**A.** 2 to 20 µg/mL

**Q.** Which “MIC values Fungus” value (Fungus; ref [38]) does the source give for Galleria defensin here?
**A.** 14.7 to 29.5 µg/mL

**Q.** With Sapecin as the compound, how does the “MIC values E.coli” value (E.coli; ref [36]) read?
**A.** >78.0 µg/mL

**Q.** What about the “MIC values S.aureus” value (S.aureus; ref [36]) of the same compound?
**A.** 5.0 µg/mL

**Q.** What about the “MIC values Bacilius subtilis” value (Bacilius subtilis; ref [36]) of the same compound?
**A.** 20 to 39 µg/mL

**Q.** With “Cecropin B (KWKVFKKIEKMGRNIRNGIVKAGPAIAVLGEAKAL; ends and bridges not checked; UniProt P01508 27-61, looked up)” as the compound, how does the “MIC values E.coli” value (E.coli; ref [28]) read?
**A.** 2.5 µg/mL

**Q.** What about the “MIC values E.coli” value (E.coli; ref [30]) of the same compound?
**A.** 2 µg/mL

**Q.** And the “MIC values E.coli” value (E.coli; ref [31])?
**A.** 16 µg/mL

**Q.** And the “MIC values S.aureus” value (S.aureus; ref [31])?
**A.** >128 µg/mL

**Q.** And the “MIC values P.aeruginosa” value (P.aeruginosa; ref [28])?
**A.** 2.5 µg/mL

**Q.** And the “MIC values P.aeruginosa” value (P.aeruginosa; ref [30])?
**A.** >100 µg/mL

**Q.** What about the “MIC range against different strains of gram-negative bacteria” value [1] of the same compound?
**A.** 2 to 20 µg/mL

**Q.** Which results are given for “Cecropin A (KWKLFKKIEKVGQNIRDGIIKAGPAVAVVGQATQIAK; ends and bridges not checked; UniProt P01507 27-63, looked up)”?
**A.** MIC values E.coli (E.coli; ref [28]): 2.5 µg/mL; MIC values P.aeruginosa (P.aeruginosa; ref [28]): 2.5 µg/mL; MIC range against different strains of gram-negative bacteria [1]: 2 to 20 µg/mL

**Q.** For `CC[C@H](C)[C@H](NC(=O)CN)C(=O)NCC(=O)N[C@@H](C)C(=O)N[C@H](C(=O)N[C@@H](CC(C)C)C(=O)N[C@@H](CCCCN)C(=O)N[C@H](C(=O)N[C@@H](CC(C)C)C(=O)N[C@H](C(=O)N[C@H](C(=O)NCC(=O)N[C@@H](CC(C)C)C(=O)N1CCC[C@H]1C(=O)N[C@@H](C)C(=O)N[C@@H](CC(C)C)C(=O)N[C@H](C(=O)N[C@@H](CO)C(=O)N[C@@H](Cc1c[nH]c2ccccc12)C(=O)N[C@H](C(=O)N[C@@H](CCCCN)C(=O)N[C@@H](CCCNC(=N)N)C(=O)N[C@@H](CCCCN)C(=O)N[C@@H](CCCNC(=N)N)C(=O)N[C@@H](CCC(N)=O)C(=O)N[C@@H](CCC(N)=O)C(N)=O)[C@@H](C)CC)[C@@H](C)CC)[C@@H](C)O)[C@@H](C)O)C(C)C)C(C)C` [Melittin], which “concentration at which RBCs are lysed” value (sheep erythrocytes) is on record?
**A.** ≥ 12500 ng/mL

— article PMC5913751 (Peptides, 2018)
